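Following 48 hours of exposure in 96-well plates, responses at five concentrations were used to interpolate endpoints linearly. GI50 marks 50% less growth. TGI denotes the concentration required for complete inhibition of growth.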
Tests used:
Test in all cases: NCI-60 cell line screen, 48 h
ACHN renal = system: ACHN renal
DU-145 prostate = system: DU-145 prostate
EKVX NSCLC = system: EKVX NSCLC
HOP-62 NSCLC = system: HOP-62 NSCLC
IGROV1 ovarian = system: IGROV1 ovarian
KM12 colon = system: KM12 colon
MDA-MB-231 breast = system: MDA-MB-231 breast
RXF 393 renal = system: RXF 393 renal
UACC-62 melanoma = system: UACC-62 melanoma
UO-31 renal = system: UO-31 renal

c1ccc(Cn2cc3c(c2-c2ccccc2)CCc2cnoc2-3)cc1
GI50 (ACHN renal): 9.36 µM
TGI (ACHN renal): > 100 µM
GI50 (DU-145 prostate): 20.1 µM
TGI (DU-145 prostate): > 100 µM
GI50 (EKVX NSCLC): 5.53 µM
TGI (EKVX NSCLC): > 100 µM
GI50 (HOP-62 NSCLC): 6.76 µM
TGI (HOP-62 NSCLC): > 100 µM
GI50 (IGROV1 ovarian): 5.51 µM
TGI (IGROV1 ovarian): > 100 µM
GI50 (KM12 colon): 3.27 µM
TGI (KM12 colon): 47 µM
GI50 (MDA-MB-231 breast): 5.68 µM
TGI (MDA-MB-231 breast): > 100 µM
GI50 (RXF 393 renal): 4.94 µM
TGI (RXF 393 renal): 61.2 µM
GI50 (UACC-62 melanoma): 4.48 µM
TGI (UACC-62 melanoma): > 100 µM
GI50 (UO-31 renal): 7.65 µM
TGI (UO-31 renal): > 100 µM

O=C1CC(c2ccc(N3CCOCC3)cc2)(c2ccsc2)NC(=O)C1Sc1ccccc1Cl (stereo not given)
GI50 (ACHN renal): 47.4 µM
TGI (ACHN renal): > 100 µM
GI50 (DU-145 prostate): 85 µM
TGI (DU-145 prostate): > 100 µM
GI50 (EKVX NSCLC): > 100 µM
TGI (EKVX NSCLC): > 100 µM
GI50 (HOP-62 NSCLC): 60.3 µM
TGI (HOP-62 NSCLC): > 100 µM
GI50 (IGROV1 ovarian): 22.4 µM
TGI (IGROV1 ovarian): > 100 µM
GI50 (KM12 colon): 43.7 µM
TGI (KM12 colon): > 100 µM
GI50 (MDA-MB-231 breast): 45.9 µM
TGI (MDA-MB-231 breast): > 100 µM
GI50 (RXF 393 renal): 5.65 µM
TGI (RXF 393 renal): > 100 µM
GI50 (UACC-62 melanoma): 53.1 µM
TGI (UACC-62 melanoma): > 100 µM
GI50 (UO-31 renal): 34.4 µM
TGI (UO-31 renal): > 100 µM

CC1=C(C(=O)Nc2ccc(F)c(Cl)c2)C(c2ccccc2Cl)NC(=S)N1 (stereo not given)
GI50 (ACHN renal): 17.5 µM
TGI (ACHN renal): > 50 µM
GI50 (DU-145 prostate): > 50 µM
TGI (DU-145 prostate): > 50 µM
GI50 (EKVX NSCLC): > 50 µM
TGI (EKVX NSCLC): > 50 µM
GI50 (HOP-62 NSCLC): > 50 µM
TGI (HOP-62 NSCLC): > 50 µM
GI50 (IGROV1 ovarian): 22.8 µM
TGI (IGROV1 ovarian): > 50 µM
GI50 (KM12 colon): 41.9 µM
TGI (KM12 colon): > 50 µM
GI50 (MDA-MB-231 breast): 19.6 µM
TGI (MDA-MB-231 breast): > 50 µM
GI50 (RXF 393 renal): 16.9 µM
TGI (RXF 393 renal): 37.7 µM
GI50 (UACC-62 melanoma): 9.63 µM
TGI (UACC-62 melanoma): > 50 µM
GI50 (UO-31 renal): 21.3 µM
TGI (UO-31 renal): > 50 µM

COc1cccc(C2c3cc4c(cc3OC(C)(O)C2C)OCO4)c1O (stereo not given)
TGI (ACHN renal): 79.1 µM
TGI (DU-145 prostate): 53.9 µM
TGI (EKVX NSCLC): > 100 µM
TGI (HOP-62 NSCLC): 44.4 µM
TGI (IGROV1 ovarian): 69.2 µM
TGI (KM12 colon): 36.6 µM
TGI (MDA-MB-231 breast): 19.2 µM
TGI (RXF 393 renal): 34.1 µM
TGI (UACC-62 melanoma): 31.1 µM
TGI (UO-31 renal): 52.6 µM

COc1cc(C(=O)c2ccc3c(c2)OCO3)cc(OC)c1OC
GI50 (ACHN renal): 8.37 µM
TGI (ACHN renal): > 100 µM
GI50 (DU-145 prostate): 3.51 µM
TGI (DU-145 prostate): > 65.7 µM
GI50 (EKVX NSCLC): 3.77 µM
TGI (EKVX NSCLC): > 100 µM
GI50 (HOP-62 NSCLC): 3.34 µM
TGI (HOP-62 NSCLC): > 100 µM
GI50 (IGROV1 ovarian): 1.45 µM
TGI (IGROV1 ovarian): > 45.5 µM
GI50 (KM12 colon): 0.656 µM
TGI (KM12 colon): 80.8 µM
GI50 (MDA-MB-231 breast): 8.65 µM
TGI (MDA-MB-231 breast): > 100 µM
GI50 (RXF 393 renal): 2.88 µM
TGI (RXF 393 renal): 17.1 µM
GI50 (UACC-62 melanoma): 2.62 µM
TGI (UACC-62 melanoma): > 100 µM
GI50 (UO-31 renal): 2.93 µM
TGI (UO-31 renal): 38.2 µM

COc1cc(-c2nc(Nc3nc4ccccc4[nH]3)nc(N)c2C#N)cc(OC)c1OC
GI50 (ACHN renal): 14.5 µM
TGI (ACHN renal): > 100 µM
GI50 (DU-145 prostate): 10.9 µM
TGI (DU-145 prostate): 35.6 µM
GI50 (EKVX NSCLC): 41.4 µM
TGI (EKVX NSCLC): > 100 µM
GI50 (HOP-62 NSCLC): 5.04 µM
TGI (HOP-62 NSCLC): 53.2 µM
GI50 (IGROV1 ovarian): 6.2 µM
TGI (IGROV1 ovarian): > 54 µM
GI50 (KM12 colon): 0.714 µM
TGI (KM12 colon): > 100 µM
GI50 (MDA-MB-231 breast): 13.1 µM
TGI (MDA-MB-231 breast): 92.4 µM
GI50 (RXF 393 renal): 0.378 µM
TGI (RXF 393 renal): 23.7 µM
GI50 (UACC-62 melanoma): 4.65 µM
TGI (UACC-62 melanoma): > 59.7 µM
GI50 (UO-31 renal): 85.7 µM
TGI (UO-31 renal): > 100 µM

— PubChem BioAssay (NCI)
